According to ChEMBL document CHEMBL1143885, “Aryl-indolyl maleimides as inhibitors of CaMKIIdelta. Part 1: SAR of the aryl region” (Bioorg Med Chem Lett, 2008):
pIC50: −log10 of the molar value.

Molecular target: Calcium/calmodulin-dependent protein kinase type II subunit delta (Homo sapiens, UniProt Q13557)
Test: Inhibition of CaMK2delta

Calcium/calmodulin-dependent protein kinase type II subunit delta, sequence (Q13557 whole entry): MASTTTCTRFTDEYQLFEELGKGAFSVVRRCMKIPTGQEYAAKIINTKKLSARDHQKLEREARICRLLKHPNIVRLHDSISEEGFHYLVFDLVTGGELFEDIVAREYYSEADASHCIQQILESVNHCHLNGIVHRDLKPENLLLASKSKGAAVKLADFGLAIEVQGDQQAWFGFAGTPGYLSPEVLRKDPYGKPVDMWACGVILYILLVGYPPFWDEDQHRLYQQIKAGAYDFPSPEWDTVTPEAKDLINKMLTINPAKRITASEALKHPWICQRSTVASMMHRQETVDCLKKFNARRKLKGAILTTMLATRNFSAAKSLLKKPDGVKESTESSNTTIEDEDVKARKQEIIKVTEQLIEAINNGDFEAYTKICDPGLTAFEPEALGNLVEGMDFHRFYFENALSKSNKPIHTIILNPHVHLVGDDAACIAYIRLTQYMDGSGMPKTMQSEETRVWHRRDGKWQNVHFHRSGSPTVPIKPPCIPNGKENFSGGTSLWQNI

CC(C)(C)OC(=O)NCCCn1cc(C2=C(c3csc4ccccc34)C(=O)NC2=O)c2ccccc21
pIC50: < 4.70

CN1C(=O)C(c2csc3ccccc23)=C(c2cn(CCCN)c3ccccc23)C1=O
pIC50: 5.63

NCCCn1cc(C2=C(c3cccc4ccccc34)C(=O)NC2=O)c2ccccc21
pIC50: 6.54

NCCCn1cc(C2=C(c3ccc4ccccc4c3)C(=O)NC2=O)c2ccccc21
pIC50: 6.30

Cc1cccc(C2=C(c3cn(CCCN)c4ccccc34)C(=O)NC2=O)c1
pIC50: 6.55

NCCCn1cc(C2=C(c3ccccn3)C(=O)NC2=O)c2ccccc21
pIC50: 5.80

NCCCn1cc(C2=C(c3ccco3)C(=O)NC2=O)c2ccccc21
pIC50: 5.83

NCCCn1cc(C2=C(c3ccncc3)C(=O)NC2=O)c2ccccc21
pIC50: 5.80

NCCCn1cc(C2=C(c3cccc(Oc4ccccc4)c3)C(=O)NC2=O)c2ccccc21
pIC50: 5.77

CN1C(=O)C(c2ccccc2)=C(c2cn(CCCN)c3ccccc23)C1=O
pIC50: 4.82

CN1C(=O)C(c2c[nH]c3ccc(Br)cc23)=C(c2cn(CCCN)c3ccccc23)C1=O
pIC50: < 4.70

NCCCn1cc(C2=C(c3cccs3)C(=O)NC2=O)c2ccccc21
pIC50: 5.92

NCCCn1cc(C2=C(c3cccnc3)C(=O)NC2=O)c2ccccc21
pIC50: 6.27

NCCCn1cc(C2=C(c3ccnc4ccccc34)C(=O)NC2=O)c2ccccc21
pIC50: 6.20

NCCCn1cc(C2=C(c3cccc(-c4ccccc4)c3)C(=O)NC2=O)c2ccccc21
pIC50: 5.88

CC(C)(C)OC(=O)NCCCn1cc(C2=C(c3cccs3)C(=O)NC2=O)c2ccccc21
pIC50: < 4.70

Cc1[nH]c2ccccc2c1C1=C(c2cn(CCCNC(=O)OC(C)(C)C)c3ccccc23)C(=O)NC1=O
pIC50: 5.12

NCCCn1cc(C2=C(c3ccc4ccccc4n3)C(=O)NC2=O)c2ccccc21
pIC50: < 4.70
